Results as given in patent US11396502B2, “Substituted heterocyclic derivatives as PI3K inhibitors” (Incyte Corporation, priority 2018, dated 2022).
Structures can show the parent of a compound that is named as a salt. Where two headings read alike, the source gives them in different places.

Columns and labels:
PI3Kδ (p110δ/p85α) = PI3Kδ (p110δ/p85α) (Homo sapiens (Human), UniProt O00329); test: PI3Kδ scintillation proximity assay; assay type: biochemical; conditions: recombinant human PI3Kδ 3.4 nM, 20 μM PIP2, 2 μM ATP, 120 min, room temperature
Chain of PI3Kδ (p110δ/p85α) (O00329 whole entry): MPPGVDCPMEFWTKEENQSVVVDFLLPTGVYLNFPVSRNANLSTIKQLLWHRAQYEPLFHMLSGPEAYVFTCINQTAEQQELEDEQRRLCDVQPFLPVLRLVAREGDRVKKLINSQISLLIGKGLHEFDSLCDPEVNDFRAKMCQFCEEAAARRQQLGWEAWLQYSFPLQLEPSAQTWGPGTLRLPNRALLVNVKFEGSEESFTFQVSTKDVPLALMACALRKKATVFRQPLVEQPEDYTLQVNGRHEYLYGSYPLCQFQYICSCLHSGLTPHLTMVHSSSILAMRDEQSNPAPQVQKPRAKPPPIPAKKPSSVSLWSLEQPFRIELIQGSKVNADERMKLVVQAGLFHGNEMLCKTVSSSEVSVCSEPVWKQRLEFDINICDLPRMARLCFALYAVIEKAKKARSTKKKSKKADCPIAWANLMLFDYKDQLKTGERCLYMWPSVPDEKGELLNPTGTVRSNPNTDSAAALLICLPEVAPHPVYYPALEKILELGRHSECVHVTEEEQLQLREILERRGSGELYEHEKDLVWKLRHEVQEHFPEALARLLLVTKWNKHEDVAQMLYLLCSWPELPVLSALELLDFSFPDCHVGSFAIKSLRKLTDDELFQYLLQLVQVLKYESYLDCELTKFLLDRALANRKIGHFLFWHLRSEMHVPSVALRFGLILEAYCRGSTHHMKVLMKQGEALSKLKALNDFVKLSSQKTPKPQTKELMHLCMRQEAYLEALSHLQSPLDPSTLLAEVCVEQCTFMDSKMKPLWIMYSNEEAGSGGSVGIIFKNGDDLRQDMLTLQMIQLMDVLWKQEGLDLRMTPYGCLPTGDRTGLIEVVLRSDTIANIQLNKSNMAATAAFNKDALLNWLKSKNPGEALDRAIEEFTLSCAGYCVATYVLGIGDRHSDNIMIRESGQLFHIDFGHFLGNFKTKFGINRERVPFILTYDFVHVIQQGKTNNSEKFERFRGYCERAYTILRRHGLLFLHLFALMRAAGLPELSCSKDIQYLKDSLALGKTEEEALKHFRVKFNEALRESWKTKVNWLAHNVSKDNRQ
Chain of PI3Kδ (p110δ/p85α) (P27986 whole entry partner): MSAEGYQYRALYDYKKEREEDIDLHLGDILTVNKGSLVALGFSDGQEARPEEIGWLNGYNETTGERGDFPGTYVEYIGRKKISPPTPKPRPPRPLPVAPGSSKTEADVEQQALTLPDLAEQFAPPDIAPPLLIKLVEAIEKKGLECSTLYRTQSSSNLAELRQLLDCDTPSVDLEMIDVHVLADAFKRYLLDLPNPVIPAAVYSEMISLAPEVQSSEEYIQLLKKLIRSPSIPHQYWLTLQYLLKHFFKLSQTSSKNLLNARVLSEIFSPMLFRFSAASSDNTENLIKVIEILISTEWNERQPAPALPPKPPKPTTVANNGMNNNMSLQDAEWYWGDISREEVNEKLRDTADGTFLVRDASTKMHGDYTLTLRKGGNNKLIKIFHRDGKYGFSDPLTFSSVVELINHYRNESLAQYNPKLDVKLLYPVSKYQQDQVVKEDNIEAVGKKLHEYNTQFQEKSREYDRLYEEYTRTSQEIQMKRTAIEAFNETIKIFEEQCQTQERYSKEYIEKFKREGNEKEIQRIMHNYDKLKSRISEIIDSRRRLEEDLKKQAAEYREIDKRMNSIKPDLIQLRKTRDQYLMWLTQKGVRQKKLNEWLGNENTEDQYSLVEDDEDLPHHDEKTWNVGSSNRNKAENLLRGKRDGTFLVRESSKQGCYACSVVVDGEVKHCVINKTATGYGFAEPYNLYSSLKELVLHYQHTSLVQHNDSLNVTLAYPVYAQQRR
Source text: Example C. PI3Kδ Scintillation Proximity Assay Materials: [γ-^33P]ATP (10 mCi/mL) and Wheat Germ Agglutinin (WGA) YSi SPA Scintillation Beads was purchased from Perkin Elmer (Waltham, Mass.). Lipid kinase substrate, D-myo-Phosphatidylinositol 4,5-bisphosphate (PtdIns(4,5)P2)D (+)-sn-1,2-di-O-octanoylglyceryl, 3-O-phospho linked (PIP2), CAS 204858-53-7, was purchased from Echelon Biosciences (Salt Lake City, Utah). PI3Kδ (p110δ/p85α) Recombinant Human Protein was purchased from Eurofins (St Charles, Mo.). ATP, MgCl2, DTT, EDTA, MOPS and CHAPS were purchased from Sigma Aldrich (St. Louis, Mo.). The kinase reaction was conducted in polystyrene 384-well Greiner Bio-one white plate from Thermo Fisher Scientific in a final volume of 25 μL. Inhibitors were first diluted serially in DMSO and added to the plate wells before the addition of other reaction components. The final concentration of DMSO in the assay was 2%. The PI3Kδ assay was carried out at room temperature in 20 mM MOPS, pH 6.7, 10 mM MgCl2, 5 mM DTT and CHAPS 0.03%. Reactions were initiated by the addition of ATP, the final reaction mixture consisted of 20 μM PIP2, 2 μM ATP, 0.5 μCi [γ-^33P] ATP, 3.4 nM PI3Kδ. Reactions were incubated for 120 min and terminated by the addition of 40 μL SPA beads suspended in quench buffer: 163 mM potassium phosphate pH 7.8, 20% glycerol, 25 mM EDTA. The final concentration of SPA beads is 1.0 mg/mL. After the plate sealing, plates were shaken overnight at room temperature and centrifuged at 1500 rpm for 10 min, the radioactivity of the product was determined by scintillation counting on Topcount (PerkinElmer). IC50 determination was performed by fitting the curve of percent of the solvent control activity versus the log of the inhibitor concentration using the GraphPad Prism 6.0 software.

PI3Kγ (p110γ) = PI3Kγ (p110γ) (Homo sapiens (Human), UniProt P48736); test: PI3K-γ scintillation proximity assay; assay type: biochemical; conditions: recombinant human PI3Kγ 13 nM, 20 μM PIP2, 2 μM ATP, 120 min, room temperature
Chain of PI3Kγ (p110γ) (P48736 whole entry): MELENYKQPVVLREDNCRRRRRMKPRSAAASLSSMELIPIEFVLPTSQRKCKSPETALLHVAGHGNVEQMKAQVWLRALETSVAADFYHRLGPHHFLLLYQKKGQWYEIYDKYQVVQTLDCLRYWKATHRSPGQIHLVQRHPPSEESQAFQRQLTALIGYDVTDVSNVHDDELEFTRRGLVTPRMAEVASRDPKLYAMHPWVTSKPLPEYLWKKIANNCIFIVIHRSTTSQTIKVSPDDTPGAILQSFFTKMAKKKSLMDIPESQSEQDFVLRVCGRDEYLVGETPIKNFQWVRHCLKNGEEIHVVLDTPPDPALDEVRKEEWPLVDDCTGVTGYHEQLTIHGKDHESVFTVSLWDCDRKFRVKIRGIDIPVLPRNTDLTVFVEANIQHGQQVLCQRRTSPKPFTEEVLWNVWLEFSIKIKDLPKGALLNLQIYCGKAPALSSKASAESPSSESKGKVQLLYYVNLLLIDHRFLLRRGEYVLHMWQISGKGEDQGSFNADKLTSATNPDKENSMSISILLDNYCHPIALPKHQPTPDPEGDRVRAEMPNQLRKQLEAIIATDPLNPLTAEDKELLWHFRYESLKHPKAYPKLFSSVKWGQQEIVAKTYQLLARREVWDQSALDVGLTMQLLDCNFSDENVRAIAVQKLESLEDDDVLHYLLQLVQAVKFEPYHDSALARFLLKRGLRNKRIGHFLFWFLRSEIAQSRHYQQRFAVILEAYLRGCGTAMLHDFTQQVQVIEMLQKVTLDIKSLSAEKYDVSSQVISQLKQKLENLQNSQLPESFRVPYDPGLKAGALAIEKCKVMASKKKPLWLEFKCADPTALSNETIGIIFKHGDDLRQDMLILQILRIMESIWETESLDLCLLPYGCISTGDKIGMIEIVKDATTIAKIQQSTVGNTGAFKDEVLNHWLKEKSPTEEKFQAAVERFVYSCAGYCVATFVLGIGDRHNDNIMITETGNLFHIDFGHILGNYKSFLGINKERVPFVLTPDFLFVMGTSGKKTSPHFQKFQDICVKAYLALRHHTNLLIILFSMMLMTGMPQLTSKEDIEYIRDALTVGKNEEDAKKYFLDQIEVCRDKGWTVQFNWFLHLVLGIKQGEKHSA
Source text: Example B. PI3K-γ Scintillation Proximity Assay Materials: [γ-^33P]ATP (10 mCi/mL) and Wheat Germ Agglutinin (WGA) YSi SPA Scintillation Beads was purchased from Perkin Elmer (Waltham, Mass.). Lipid kinase substrate, D-myo-Phosphatidylinositol 4,5-bisphosphate (PtdIns(4,5)P2)D (+)-sn-1,2-di-O-octanoylglyceryl, 3-O-phospho linked (PIP2), CAS 204858-53-7, was purchased from Echelon Biosciences (Salt Lake City, Utah). PI3Kγ (p110γ) Recombinant Human Protein was purchased from Life technology (Grand Island, N.Y.). ATP, MgCl2, DTT, EDTA, MOPS and CHAPS were purchased from Sigma Aldrich (St. Louis, Mo.). The kinase reaction was conducted in polystyrene 384-well Greiner Bio-one white plate from Thermo Fisher Scientific in a final volume of 25 μL. Inhibitors were first diluted serially in DMSO and added to the plate wells before the addition of other reaction components. The final concentration of DMSO in the assay was 2%. The PI3Kγ assay was carried out at room temperature in 20 mM MOPS, pH 6.7, 10 mM MgCl2, 5 mM DTT and CHAPS 0.03%. Reactions were initiated by the addition of ATP, the final reaction mixture consisted of 20 μM PIP2, 2 μM ATP, 0.5 μCi [γ-^33P] ATP, 13 nM PI3Kγ. Reactions were incubated for 120 min and terminated by the addition of 40 μL SPA beads suspended in quench buffer: 163 mM potassium phosphate pH 7.8, 20% glycerol, 25 mM EDTA. The final concentration of SPA beads is 1.0 mg/mL. After the plate sealing, plates were shaken overnight at room temperature and centrifuged at 1500 rpm for 10 min, the radioactivity of the product was determined by scintillation counting on Topcount (Perkin-Elmer). IC50 determination was performed by fitting the curve of percent of the solvent control activity versus the log of the inhibitor concentration using the GraphPad Prism 6.0 software.

[1] = system: Phosphorylated Ribosomal Protein S6 (RPS6) in THP-1 cells; test: THP-1 RPS6 ELISA assay; assay type: cell-based, Human; conditions: Homo sapiens
Protocol: Example A. THP-1 RPS6 ELISA Assay
To measure the Phosphorylated Ribosomal Protein S6 (RPS6) in cell lysates, THP-1 cells (Human Acute Monocytic Leukemia) are purchased from ATCC (Manassas, Va.) and maintained in RPMI with 10% FBS (Gibco/Life Technologies, Carlsbad, Calif.). For the assay, THP-1 cells are serum starved overnight in RPMI, then plated in RPMI (2×10^5 cells/well in 90 μL) into 96-well flat-bottom tissue culture treated plates (Corning, Corning, N.Y.), in the presence or absence of a concentration range of test compounds. Covered plates are incubated for 2 hours at 37° C., 5% CO2 then treated with or without 10 nM MCP-1 (MYBioSource, San Diego, Calif.) for 15 minutes at 37° C., 5% CO2. Plates are centrifuged at 1600 RPM and supernatants are removed. Cells are lysed in Lysis Buffer (Cell Signaling, Danvers, Mass.) with Protease Inhibitor (Calbiochem/EMD, Germany), PMSF (Sigma, St Louis Mo.), HALTS (Thermo Fisher, Rockford, Ill.) for 30 min on wet ice. Cell lysates are frozen at −80° C. before testing. The lysates are tested in the Human/Mouse/Rat Phospho-RPS6 ELISA (R&D Systems, Inc. Minn, Minn.). The plate is measured using a microplate reader (SpectraMax M5—Molecular Devices, LLC Sunnyvale, Calif.) set to 450 nm with a wavelength correction of 540. IC50 determination is performed by fitting the curve of inhibitor percent inhibition versus the log of the inhibitor concentration using the GraphPad Prism 5.0 software.

[2] = THP-1, serum starved THP-1 cells, 2 hours compound, 10 nM MCP-1 for 15 minutes, Phospho-RPS6 ELISA, read-out: PI3Kγ_THP1_RPS6_ELISA IC50
[3] = THP-1, read-out: PI3Kγ_THP1_RPS6_ELISA IC50 (nM)

Row | SMILES | IC50 (PI3Kδ (p110δ/p85α)) | IC50 (PI3Kγ (p110γ)) | IC50 [1, 2] | IC50 [1, 3]
1 | Cc1[nH]c(-c2cc(-c3ccc4c(c3)CN([C@@H](C)C3CC3)C4=O)ccn2)nc1C(=O)NC1CCOCC1 [Example 4, (S)-2-(4-(2-(1-Cyclopropylethyl)-1-oxoisoindolin-5-yl)pyridin-2-yl)-5-methyl-N-(tetrahydro-2H-pyran-4-yl)-1H-imidazole-4-carboxamide trifluoroacetate salt] | 500 to 2000 nM | < 100 nM | > 1000 nM | –
2 | Cc1[nH]c(-c2cc(-c3ccc4c(c3)CN([C@@H](C)C3CC3)C4=O)ccn2)nc1C(=O)N(C)C [Example 5, (S)-2-(4-(2-(1-Cyclopropylethyl)-1-oxoisoindolin-5-yl)pyridin-2-yl)-N,N,5-trimethyl-1H-imidazole-4-carboxamide trifluoroacetate salt] | > 2000 nM | < 100 nM | > 1000 nM | –
3 | CNC(=O)c1nc(-c2cc(-c3ccc4c(c3)CN([C@@H](C)C3CC3)C4=O)ccn2)[nH]c1C [Example 6, (S)-2-(4-(2-(1-Cyclopropylethyl)-1-oxoisoindolin-5-yl)pyridin-2-yl)-N,5-dimethyl-1H-imidazole-4-carboxamide trifluoroacetate salt] | > 2000 nM | < 100 nM | > 1000 nM | –
4 | CNC(=O)c1nc(-c2cc(-c3cc4c(c(S(C)(=O)=O)c3)C(=O)N([C@@H](C)C3CC3)C4)ccn2)[nH]c1C [Example 7, (S)-2-(4-(2-(1-Cyclopropylethyl)-7-(methylsulfonyl)-1-oxoisoindolin-5-yl)pyridin-2-yl)-N,4-dimethyl-1H-imidazole-5-carboxamide, trifluoroacetate salt] | 500 to 2000 nM | < 100 nM | 100 to 500 nM | –
5 | Cc1[nH]c(-c2cc(-c3cc4c(c(S(C)(=O)=O)c3)C(=O)N([C@@H](C)C3CC3)C4)ccn2)nc1C(=O)NC(C)C [Example 7a, (S)-2-(4-(2-(1-Cyclopropylethyl)-7-(methylsulfonyl)-1-oxoisoindolin-5-yl)pyridin-2-yl)-N-isopropyl-4-methyl-1H-imidazole-5-carboxamide, trifluoroacetate salt] | 100 to 500 nM | < 100 nM | – | < 100 nM
6 | Cc1[nH]c(-c2cc(-c3cc4c(c(S(C)(=O)=O)c3)C(=O)N([C@@H](C)C3CC3)C4)ccn2)nc1C(=O)NC1CCOCC1 [Example 7b, (S)-2-(4-(2-(1-Cyclopropylethyl)-7-(methylsulfonyl)-1-oxoisoindolin-5-yl)pyridin-2-yl)-4-methyl-N-(tetrahydro-2H-pyran-4-yl)-1H-imidazole-5-carboxamide, trifluoroacetate salt] | 100 to 500 nM | < 100 nM | 500 to 1000 nM | –
7 | Cc1[nH]c(-c2cc(-c3cc4c(c(S(C)(=O)=O)c3)C(=O)N([C@@H](C)C3CC3)C4)ccn2)nc1C(=O)NC12CC(C1)C2 [Example 7c, (S)-N-(Bicyclo[1.1.1]pentan-1-yl)-2-(4-(2-(1-cyclopropylethyl)-7-(methylsulfonyl)-1-oxoisoindolin-5-yl)pyridin-2-yl)-4-methyl-1H-imidazole-5-carboxamide, trifluoroacetate salt] | 100 to 500 nM | < 100 nM | > 1000 nM | –
8 | Cc1[nH]c(-c2cc(-c3cc4c(c(S(C)(=O)=O)c3)C(=O)N([C@@H](C)C3CC3)C4)ccn2)nc1C(=O)N1CC(F)(F)C1 [Example 7d, (S)-2-(1-Cyclopropylethyl)-5-(2-(5-(3,3-difluoroazetidine-1-carbonyl)-4-methyl-1H-imidazol-2-yl)pyridin-4-yl)-7-(methylsulfonyl)isoindolin-1-one, trifluoroacetate salt] | 100 to 500 nM | < 100 nM | 100 to 500 nM | –
9 | Cc1[nH]c(-c2cc(-c3cc4c(c(S(C)(=O)=O)c3)C(=O)N([C@@H](C)C3CC3)C4)ccn2)nc1C(=O)N1CC(O)C1 [Example 7e, (S)-2-(1-Cyclopropylethyl)-5-(2-(5-(3-hydroxyazetidine-1-carbonyl)-4-methyl-1H-imidazol-2-yl)pyridin-4-yl)-7-(methylsulfonyl)isoindolin-1-one, trifluoroacetate salt] | 100 to 500 nM | < 100 nM | > 1000 nM | –
10 | Cc1[nH]c(-c2cc(-c3cc4c(c(S(C)(=O)=O)c3)C(=O)N([C@@H](C)C3CC3)C4)ccn2)nc1C(=O)NC12CCC(C#N)(C1)C2 [Example 7h, (S)-N-(4-Cyanobicyclo[2.1.1]hexan-1-yl)-2-(4-(2-(1-cyclopropylethyl)-7-(methylsulfonyl)-1-oxoisoindolin-5-yl)pyridin-2-yl)-4-methyl-1H-imidazole-5-carboxamide, trifluoroacetate salt] | < 100 nM | < 100 nM | 100 to 500 nM | –
11 | Cc1[nH]c(-c2cc(-c3cc4c(c(S(C)(=O)=O)c3)C(=O)N([C@@H](C)C3CC3)C4)ccn2)nc1C(=O)NC1CC2(COC2)C1 [Example 7i, (S)-2-(4-(2-(1-Cyclopropylethyl)-7-(methylsulfonyl)-1-oxoisoindolin-5-yl)pyridin-2-yl)-4-methyl-N-(2-oxaspiro[3.3]heptan-6-yl)-1H-imidazole-5-carboxamide, trifluoroacetate salt] | < 100 nM | < 100 nM | 100 to 500 nM | –
12 | Cc1[nH]c(-c2cc(-c3cc4c(c(S(C)(=O)=O)c3)C(=O)N([C@@H](C)C3CC3)C4)ccn2)nc1C(=O)N1CCC1 [Example 7j, (S)-5-(2-(5-(Azetidine-1-carbonyl)-4-methyl-1H-imidazol-2-yl)pyridin-4-yl)-2-(1-cyclopropylethyl)-7-(methylsulfonyl)isoindolin-1-one, trifluoroacetate salt] | 100 to 500 nM | < 100 nM | – | 100 to 500 nM
